Where two headings read alike, the source gives them in different places. Bridge positions count the residues as written; N and C are the ends. Square brackets hold non-standard residues; d marks the D form. Ends that are not written are not given here. Peptide text beside a SMILES is read from it. * marks the point of attachment. FITC = O=C1OC2(c3ccc(O)cc3Oc3cc(O)ccc32)c2ccc(NC(=S)*)cc21; S5 = C=CCCC[C@](C)(N)C(=O)O; Nle = CCCC[C@H](N)C(=O)O; βAla = NCCC(=O)O

The nature of series [1]: Circular dichroism (CD) secondary structure of the peptides. In kind it is physicochemical. The note with it: aqueous solution; 100 μM peptide in 10 mM potassium phosphate, 100 mM potassium fluoride buffer (pH=7.5). On the procedure: Circular dichroism (CD) was used to determine the secondary structure of the peptides. […] Hydrocarbon stapling promoted α-helix contents with SAH-POP1-4 and SAH-POP1-8 having the highest in aqueous solution.
CD spectra were recorded on an AVIV Model 215 Circular Dichroism Spectrometer. Each spectrum was collected with the wavelength between 190 to 260 nm, 0.5 nm increments, and 0.5 s averaging time using a 1-mm path length cell. The peptide concentration was 100 μM in 10 mM potassium phosphate and 100 mM potassium fluoride buffer (pH=7.5). The studied peptides were completely dissolved in this buffer. CD spectra were initially plotted as wavelength versus millidgree, the default output of the instrument. Once the precise peptide concentration was confirmed, the mean residue ellipticity [Θ] was calculated for the y-axis.

Series [2] concerns caspase-1 activity in Human THP-1 monocytes. Description: Promega Caspase-Glo 1 Inflammasome Assay (cell-based bioluminescent caspase-1 activity assay). The note with it: for inhibited caspase-1 activities: 5 μM inhibitor, PMA-differentiated THP-1, LPS and nigericin stimulated. From the text:
Promega Caspase-Glo™ 1 Inflammasome Assay. A cell-based bioluminescent caspase-1 activity assay (O'Brien et al., 2017) (Promega Caspase-Glo™ | Inflammasome Assay Kit G9951) was used to evaluate the inhibitory activity of SAH-POP1-4 and SAH-POP1-8 on inhibition of inflammasome formation and caspase-1 activation. Human THP-1 monocytes were differentiated with phorbol 12-myristate 13-acetate (PMA), and treated sequentially with lipopolysaccharide (LPS), a Toll-like receptor 4 (TLR4) agonist, and nigericin, a K^+ ionophore to promote K^+ efflux, resulting in NLRP3- and ASC-dependent caspase-1 activation. The cells were then treated with the inhibitors. […] Experimental Procedure for Promega caspase-Glo™ 1 Inflammasome Assay: THP1 cells were seeded at 5×10^5/ml in RPMI1640 medium with 10% FCS in 96-well plates and cultivated in the presence of 50 nM phorbol-12-myristate-13-acetate (PMA) for 24 h. Then the media was replaced with fresh media and incubated for 24 h. The cells were stimulated with 200 ng/ml LPS in E. coli (Sigma) for 3 h. The media was removed and replaced with serum-free media (OptiMEM) containing DMSO (1:1,000), 5 μM inhibitors for 30 min. Cells were then stimulated with the inflammasome activators: 5 μM nigericin 2 h. Control samples were incubated with medium lacking LPS or nigericin. Then the activity of the active caspase-1 was measured by Caspase-Glo™ 1 inflammasome assay (Promega). A cell-based bioluminescent caspase-1 activity assay (Promega Caspase-Glo™ 1 Inflammasome Assay Kit G9951) was used to evaluate the inhibitory activity of SAH-POP1-17 and SAH-POP1-18 on inhibition of inflammasome formation and caspase-1 activation. Human THP-1 monocytes were differentiated with phorbol 12-myristate 13-acetate (PMA), and treated sequentially with lipopolysaccharide (LPS), a Toll-like receptor 4 (TLR4) agonist, and nigericin, a K^+ ionophore to promote K^+ efflux, resulting in NLRP3- and ASC-dependent caspase-1 activation. The cells were then treated with the inhibitors. […] Experimental Procedure for Promega caspase-Glo™ 1 Inflammasome Assay: THP1 cells were seeded at 5×10^5/ml in RPMI1640 medium with 10% FCS in 96-well plates and cultivated in the presence of 50 nM phorbol-12-myristate-13-acetate (PMA) for 24 h. Then the media was replaced with fresh media and incubated for 24 h. The cells were stimulated with 200 ng/ml LPS in E. coli (Sigma) for 3 h. The media was removed and replaced with serum-free media (OptiMEM) containing DMSO (1:1,000), 5 μM inhibitors for 30 min. Cells were then stimulated with the inflammasome activators: 5 μM nigericin 2 h. Control samples were incubated with medium lacking LPS or nigericin. Then the activity of the active caspase-1 was measured by Caspase-Glo™ 1 inflammasome assay (Promega).

Another series concerns the target T1, GST-NLRP3^PYD (Homo sapiens, UniProt Q96P20).
T1 construct: human NLRP3 (residues 3-110) was cloned into a pET-21b vector; made in house; host or cells: E. coli BL21 DE3
Description: KD (μM) | GST-NLRP3^PYD. The text has this:
Table printed on a drawing sheet, FIG. 10
Head of the field: KD (μM) | GST-NLRP3^PYD
The patent's description of the figure: FIG. 10 is a table showing the results from a fluorescence anisotropy binding assay to determine the accurate binding affinities of stapled peptides fPOP1-H2 (SEQ ID NO: 2), fSAH-POP1-1 (SEQ ID NO: 1), fSAH-POP1-3 (SEQ ID NO: 3), fSAH-POP1-4 (SEQ ID NO: 4), fSAH-POP1-5 (SEQ ID NO: 5), fSAH-POP1-6 (SEQ ID NO: 6), fSAH-POP1-7 (SEQ ID NO: 7), fSAH-POP1-8 (SEQ ID NO: 8), fSAH-POP1-9 (SEQ ID NO: 9), fSAH-POP1-10 (SEQ ID NO: 10), fSAH-POP1-11 (SEQ ID NO: 11), fSAH-POP1-12 (SEQ ID NO: 12), fSAH-POP1-13 (SEQ ID NO: 13), fSAH-POP1-14 (SEQ ID NO: 14), fSAH-POP1-15 (SEQ ID NO: 15), fSAH-POP1-16 (SEQ ID NO: 16), fSAH-POP1-17 (SEQ ID NO: 17), fSAH-POP1-18 (SEQ ID NO: 18), fSAH-POP1-19 (SEQ ID NO: 19), fSAH-POP1-20 (SEQ ID NO: 20), fSAH-POP1-21 (SEQ ID NO: 21), fSAH-POP1-22 (SEQ ID NO: 22), fSAH-POP1-23 (SEQ ID NO: 23), fSAH-POP1-24 (SEQ ID NO: 24), fSAH-POP1-25 (SEQ ID NO: 25), fSAH-POP1-26 (SEQ ID NO: 26), fSAH-POP1-27 (SEQ ID NO: 27), fSAH-POP1-28 (SEQ ID NO: 28), fSAH-POP1-29 (SEQ ID NO: 29), fSAH-POP1-30 (SEQ ID NO: 30), fSAH-POP1-31 (SEQ ID NO: 31).
First copying reader's note: In the structures S5, NL (N with lowered L) and NH2 carry lowered signs, a drawn bracket joins the two S5 residues (staple), and the SEQ ID NO column is printed outside the table frame. […]

Series [3] relates to ASC speck formation in THP-1 ASC-GFP cells. Description: ASC speck assay, live-cell imaging. The series is classed as cell-based, Human. The following applies: 20 μM peptide; nigericin-activated THP-1 ASC-GFP cells. On the procedure:
ASC speck is a hallmark of inflammasome formation (Dick et al., 2016; Hoss et al., 2017) and observable by microscopy (Doyle et al., 2012; Stutz et al., 2013). THP-1 ASC-GFP cells stably expressing the ASC-GFP fusion protein (InvivoGen Catalog #: thp-ascgfp) were used to visualize the inhibitory effect of SAH-POP1-4 on ASC specks formation (Fernandes-Alnemri et al., 2007).
Experimental Procedure for ASC Speck Assay. THP1 ASC-GFP cells were seeded at 2×10^6/ml (0.7-1 mL) in RPMI1640 medium with 10% FCS in FluoroDish (FD35-100) and cultivated in the presence of 50 nM phorbol-12-myristate-13-acetate (PMA) for 24 h, then media was replaced by fresh media and incubated for 24 h. Then cells were stimulated with 200 ng/ml LPS from E. coli (sigma) for 3 h. The media was removed and replaced with serum-free medium (OptiMEM) containing DMSO (1:1,000), 20 μM inhibitors for 30 min. […] Control samples were incubated with media lacking LPS or nigericin. Then, ASC specks were tested by confocal microscopy SP8 (Leica Microsystems).
ASC speck is the hallmark of inflammasome formation and observable by microscopy. THP-1 ASC-GFP cells stably expressing the ASC-GFP fusion protein (InvivoGen Catalog #: thp-ascgfp) were used to visualize the inhibitory effect of SAH-POP1-17 on ASC specks formation (Fernandes-Alnemri et al., 2007). […] SAH-POP1-17 at 5 μM inhibited ASC speck formation to 4%, and SAH-POP1-18 at 5 μM inhibited ASC speck formation to 8%.

T1 sequence (Q96P20 3-110): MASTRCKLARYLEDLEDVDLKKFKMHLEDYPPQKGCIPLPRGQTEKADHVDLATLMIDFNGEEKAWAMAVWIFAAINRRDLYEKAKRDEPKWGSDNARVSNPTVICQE

Consider `CCCC[C@H](NC(=O)[C@H](CCCCN)NC(=O)[C@]1(C)CCCC=CCCC[C@](C)(NC(=O)[C@@H](N)CCC(=O)O)C(=O)N[C@@H](CC(C)C)C(=O)N[C@@H](CCCCN)C(=O)N[C@@H](CCCCN)C(=O)N1)C(=O)N[C@@H](CCCCN)C(=O)N[C@@H](CC(C)C)C(=O)NCC(=O)N[C@H](C(=O)N[C@@H](C)C(N)=O)[C@@H](C)O` [SAH-POP1-8] (H-E[S5]LKK[S5]K[Nle]KLGTA-NH2; staple 2-6; N-terminus assumed), for which the “α-helical structure / α-helix contents by circular dichroism” value in series [1] was “highest”. Further, the “inhibited caspase-1 activities” value in series [2] amounted to 41%. The cell permeability entry in series [2] (THP-1 cells, inferred from caspase-1 assay) was “cell permeable”.

At GST-NLRP3^PYD, `CCCC[C@H](NC(=O)[C@H](CCCCN)NC(=O)[C@H](Cc1ccccc1)NC(=O)[C@H](CCCCN)NC(=O)[C@H](CCCCN)NC(=O)[C@H](CC(C)C)NC(=O)[C@H](CCC(=O)O)NC(=O)[C@H](CCC(=O)O)NC(=O)CCNC(=S)Nc1ccc2c(c1)C(=O)OC21c2ccc(O)cc2Oc2cc(O)ccc21)C(=O)N[C@@H](CCCCN)C(=O)N[C@@H](CC(C)C)C(=O)NCC(=O)N[C@H](C(=O)N[C@H](C(N)=O)C(C)C)[C@@H](C)O` [fPOP1-H2] ({FITC-βAla}-EELKKFK[Nle]KLGTV-NH2) came in with a Kd of 27 ± 2.3 µM.

Take “SAH-POP1-4: hydrocarbon stapled peptide, amino acid sequence ES5LKKS5KMKLGTV (E[S5]LKK[S5]KMKLGTV-NH2; staple 2-6; N-terminus assumed; SMILES CSCC[C@H](NC(=O)[C@H](CCCCN)NC(=O)[C@]1(C)CCCC=CCCC[C@](C)(NC(=O)[C@@H](N)CCC(=O)O)C(=O)N[C@@H](CC(C)C)C(=O)N[C@@H](CCCCN)C(=O)N[C@@H](CCCCN)C(=O)N1)C(=O)N[C@@H](CCCCN)C(=O)N[C@@H](CC(C)C)C(=O)NCC(=O)N[C@H](C(=O)N[C@H](C(N)=O)C(C)C)[C@@H](C)O)”: in series [1], the “α-helical structure / α-helix contents by circular dichroism” value is given as “highest”. In addition, in series [2], the cell permeability result is “cell permeable” and the “inhibited caspase-1 activities” value stood at 43%. Further, the “inhibition of ASC speck formation” value in series [3] was “completely inhibited”.

The values above are taken from patent US12077608B2, “Stapled H2 pyrin peptides” (H. LEE MOFFITT CANCER CENTER AND RESEARCH INSTITUTE, INC., priority 2018, dated 2024).
